Data: article PMC5823406, “Vehicle development, pharmacokinetics and toxicity of the anti-invasive agent 4-fluoro-3’,4’,5’-trimethoxychalcone in rodents” (PLoS ONE, 2018)

Key:
[1] = Solubility in vehicles, laser nephelometry; type: physicochemical
Procedure: The solubility of C16 was tested at 10 and 30 mg/mL for the indicated vehicles using laser nephelometry in 96-well plates (BMG LabTech NEPHELOstar microplate reader, BMG LabTech, USA). Solutions were prepared using solubilizing techniques including sonication, heating up to 37 °C and vortex. Solubility data was categorized as soluble (result ≤ +15 of blank), slightly soluble (result between +15 and +25 of blank) or not soluble (result > +25 of blank).
C16 has low aqueous solubility, which limits the choice of preclinical formulations for in vivo studies. In this work, thirteen vehicles were evaluated for their applicability in single-dose studies (Table 1). For commonly used systems (entries a-e) visual determination of solubility was conducted, while for the more complex systems solubility was assessed by laser nephelometry.

[2] = Blood partitioning; type: in vitro ADME; settings: rat, Sprague-Dawley, authors call the ratio not accurate

COc1cc(C(=O)/C=C/c2ccc(F)cc2)cc(OC)c1OC [C16, 4-fluoro-3’,4’,5’-trimethoxychalcone]
Solubility of C16 in vehicle: Result ([1]; 10% Cremophor EL / 10% EtOH, 10 mg/mL): Insoluble ^b | Solubility of C16 in vehicle: Result ([1]; 10% Cremophor EL / 10% EtOH, 30 mg/mL): Insoluble ^b | Solubility of C16 in vehicle: Result ([1]; 10% DMA / 10% EtOH / 20% PG, 10 mg/mL): Insoluble ^b | Solubility of C16 in vehicle: Result ([1]; 10% DMA / 10% EtOH / 20% PG, 30 mg/mL): Insoluble ^b | Solubility of C16 in vehicle: Result ([1]; 10% Dimethylacetamide (DMA) / 90% PEG 600, 10 mg/mL): Soluble ^b | Solubility of C16 in vehicle: Result ([1]; 10% Dimethylacetamide (DMA) / 90% PEG 600, 30 mg/mL): Soluble ^b | Solubility of C16 in vehicle: Result ([1]; 10% Solutol HS-15 / 90% PEG 600, 10 mg/mL): Soluble ^b | Solubility of C16 in vehicle: Result ([1]; 10% Solutol HS-15 / 90% PEG 600, 30 mg/mL): Soluble ^b | Solubility of C16 in vehicle: Result ([1]; 10%DMA / 20%PG / 40% PEG 400, 10 mg/mL): Insoluble ^b | Solubility of C16 in vehicle: Result ([1]; 10%DMA / 20%PG / 40% PEG 400, 30 mg/mL): Insoluble ^b | Solubility of C16 in vehicle: Result ([1]; 20% PEG 400 / 10% Cremophor EL, 10 mg/mL): Insoluble ^b | Solubility of C16 in vehicle: Result ([1]; 20% PEG 400 / 10% Cremophor EL, 30 mg/mL): Insoluble ^b | Solubility of C16 in vehicle: Result ([1]; 40% PEG 400 / 10% EtOH, 10 mg/mL): Insoluble ^b | Solubility of C16 in vehicle: Result ([1]; 40% PEG 400 / 10% EtOH, 30 mg/mL): Insoluble ^b | Solubility of C16 in vehicle: Result ([1]; 100% Corn oil, 10 mg/mL): Insoluble ^b | Solubility of C16 in vehicle: Result ([1]; 100% Corn oil, 30 mg/mL): Insoluble ^b | blood plasma ratio at 1 μM [2]: 9.2
